Reference: US20090221642A1, “MUSCARINIC RECEPTOR AGONISTS, COMPOSITIONS, METHODS OF TREATMENT THEREOF, AND PROCESSES FOR PREPARATION THEREOF-176” (AstraZeneca AB, priority 2008, published 2009)

How the values were obtained:
[1] = target: T1, cloned human M2 receptor (human Muscarinic receptor subtype 2) (Homo sapiens, UniProt P08172); assay: hM2 receptor GTPγS binding; format: biochemical; conditions: CHO cell membranes expressing hM2; [35S]GTPγS binding; read-out: hM2 EC50
T1 construct: purchased Perkin-Elmer RBHM2M; host or cells: Chinese hamster ovary cells (CHO) membranes
T1 sequence (P08172 1-466): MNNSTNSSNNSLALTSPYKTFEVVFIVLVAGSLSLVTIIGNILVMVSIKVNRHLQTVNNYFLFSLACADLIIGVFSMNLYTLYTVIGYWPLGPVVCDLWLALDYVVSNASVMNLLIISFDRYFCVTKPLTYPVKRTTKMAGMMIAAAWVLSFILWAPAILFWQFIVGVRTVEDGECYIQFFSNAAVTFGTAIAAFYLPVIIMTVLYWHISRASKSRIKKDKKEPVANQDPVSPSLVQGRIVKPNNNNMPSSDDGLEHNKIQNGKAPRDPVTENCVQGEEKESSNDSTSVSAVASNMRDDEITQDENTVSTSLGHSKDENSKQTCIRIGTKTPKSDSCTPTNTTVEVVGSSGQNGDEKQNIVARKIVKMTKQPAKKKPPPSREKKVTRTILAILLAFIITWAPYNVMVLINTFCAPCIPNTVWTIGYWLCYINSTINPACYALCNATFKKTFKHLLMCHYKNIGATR
Description: hM2 Receptor GTPγS Binding
Membranes produced from Chinese hamster ovary cells (CHO) expressing the cloned human M2 receptor (human Muscarinic receptor subtype 2, gene bank access NM_000739), are obtained from Perkin-Elmer (RBHM2M). The membranes are thawed at 37° C., passed 3 times through a 23-gauge blunt-end needle, diluted in the GTPγS binding buffer (50 mM Hepes, 20 mM NaOH, 100 mM NaCl, 1 mM EDTA, 5 mM MgCl2, pH 7.4, 100 μM DTT). The EC50, IC50 and Emax of the compounds of the invention are evaluated from 10-point dose-response curves (three fold concentration range) done in 60 μl in 384-well non-specific binding surface plate (Corning). Ten microliters from the dose-response curves plate (5× concentration) are transferred to another 384 well plate containing 25 μl of the following: 5 μg of hM2 membranes, 500 μg of Flashblue beads (Perkin-Elmer) and GDP 25 μM. An additional 15 μl containing 3.3× (60,000 dpm) of GTPγ^35S (0.4 nM final) are added to the wells resulting in a total well volume of 50 μl. Basal and maximal stimulated [^35S]GTPγS binding are determined in absence and presence of 30 μM final of acetylcholine agonist. The membranes/beads mix are pre-incubated for 15 minutes at room temperature with 25 μM GDP prior to distribution in plates (12.5 μM final). The reversal of acetylcholine-induced stimulation (2 μM final) of [^35S]GTPγS binding is used to assay the antagonist properties (IC50) of the compounds. The plates are incubated for 60 minutes at room temperature then centrifuged at 400 rpm for 5 minutes. The radioactivity (cpm) is counted in a Trilux (Perkin-Elmer).
(§1) Values of EC50, IC50 and Emax are obtained using sigmoidal fits of a non-linear curve-fitting program (XLfit version 4.2.2 Excel add-in version 4.2.2 build 18 math 1Q version 2.1.2 build 18) of percent stimulated [^35S]GTPγS binding vs. log(molar ligand). All pEC50 and plC50 values are reported as arithmetic means ±standard error of mean of ‘n’ independent experiments.

[2] = target: T2, cloned human M4 receptor (human Muscarinic receptor subtype 4) (Homo sapiens, UniProt P08173); assay: hM4 receptor GTPγS binding; format: biochemical; conditions: CHO cell membranes expressing hM4; [35S]GTPγS binding; read-out: hM4 EC50
T2 construct: purchased Perkin-Elmer RBHM4M; host or cells: Chinese hamster ovary cells (CHO) membranes
T2 sequence (P08173 1-479): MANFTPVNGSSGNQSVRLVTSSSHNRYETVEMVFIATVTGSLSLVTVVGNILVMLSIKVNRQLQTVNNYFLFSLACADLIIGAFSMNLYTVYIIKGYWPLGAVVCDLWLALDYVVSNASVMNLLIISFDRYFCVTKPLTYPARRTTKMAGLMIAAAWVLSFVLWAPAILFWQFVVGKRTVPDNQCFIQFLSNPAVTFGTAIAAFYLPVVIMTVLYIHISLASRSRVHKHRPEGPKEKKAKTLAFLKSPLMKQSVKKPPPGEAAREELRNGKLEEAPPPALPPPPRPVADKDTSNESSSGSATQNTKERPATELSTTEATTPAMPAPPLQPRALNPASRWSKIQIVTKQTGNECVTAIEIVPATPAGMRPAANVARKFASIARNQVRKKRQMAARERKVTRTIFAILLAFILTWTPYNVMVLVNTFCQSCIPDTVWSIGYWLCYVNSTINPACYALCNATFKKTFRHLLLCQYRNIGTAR
Description: hM4 Receptor GTPγS Binding
Membranes produced from Chinese hamster ovary cells (CHO) expressing the cloned human M4 receptor (human Muscarinic receptor subtype 4, gene bank access NM_000741), are obtained from Perkin-Elmer (RBHM4M). The membranes are thawed at 37° C., passed 3 times through a 23-gauge blunt-end needle, diluted in the GTPγS binding buffer (50 mM Hepes, 20 mM NaOH, 100 mM NaCl, 1 mM EDTA, 5 mM MgCl2, pH 7.4, 100 μM DTT). The EC50, IC50 and Emax of the compounds of the invention are evaluated from 10-point dose-response curves (three fold concentration range) done in 60 μl in 384-well non-specific binding surface plate (Corning). Ten microliters from the dose-response curves plate (5× concentration) are transferred to another 384 well plate containing 25 μl of the following: 10 μg of hM4 membranes, 500 μg of Flashblue beads (Perkin-Elmer) and GDP 40 μM. An additional 15 μl containing 3.3× (60,000 dpm) of GTPγ^35S (0.4 nM final) are added to the wells resulting in a total well volume of 50 μl. Basal and maximal stimulated [^35S]GTPγS binding are determined in absence and presence of 30 μM final of acetylcholine agonist. The membranes/beads mix are pre-incubated for 15 minutes at room temperature with 40 μM GDP prior to distribution in plates (20 μM final). The reversal of acetylcholine-induced stimulation (10 μM final) of [^35S]GTPγS binding is used to assay the antagonist properties (IC50) of the compounds. The plates are incubated for 60 minutes at room temperature then centrifuged at 400 rpm for 5 minutes. The radioactivity (cpm) is counted in a Trilux (Perkin-Elmer).
as §1

Compound	EC50 [1]	EC50 [2]
COC(=O)N1CCC(C)(N2CCC(n3c(=O)[nH]c4ccccc43)CC2)C1 (racemic) [Example 2, methyl 3-methyl-3-(4-(2-oxo-2,3-dihydro-1H-benzo[d]imidazol-1-yl)piperidin-1-yl)pyrrolidine-1-carboxylate]	0.865 µM	2.48 µM
CC1(N2CCC(n3c(=O)[nH]c4ccccc43)CC2)CCN(C(=O)OCCF)C1 (racemic) [Example 4, 2-fluoroethyl 3-methyl-3-(4-(2-oxo-2,3-dihydro-1H-benzo[d]imidazol-1-yl)piperidin-1-yl)pyrrolidine-1-carboxylate]	1.86 µM	4.38 µM
CCOC(=O)N1CCC(C)(N2CCC(n3c(=O)[nH]c4cc(F)ccc43)CC2)C1 (single isomer, unassigned) [Example 6, ethyl 3-(4-(5-fluoro-2-oxo-2,3-dihydro-1H-benzo[d]imidazol-1-yl)piperidin-1-yl)-3-methylpyrrolidine-1-carboxylate]	0.588 µM	1.73 µM
CCOC(=O)N1CCC(C)(N2CCC(n3c(=O)[nH]c4cc(F)ccc43)CC2)C1 (single isomer, unassigned) [Example 7, ethyl 3-(4-(5-fluoro-2-oxo-2,3-dihydro-1H-benzo[d]imidazol-1-yl)piperidin-1-yl)-3-methylpyrrolidine-1-carboxylate]	4.5 µM	> 24.4 µM
CCOC(=O)N1CCC(C)(N2CCC(n3c(=O)[nH]c4cc(C)ccc43)CC2)C1 (single isomer, unassigned) [Example 12, ethyl 3-methyl-3-(4-(5-methyl-2-oxo-2,3-dihydro-1H-benzo[d]imidazol-1-yl)piperidin-1-yl)pyrrolidine-1-carboxylate]	0.771 µM	2 µM
Cc1ccc2c(c1)[nH]c(=O)n2C1CCN(C2(C)CCN(C(=O)OC(C)C)C2)CC1 (single isomer, unassigned) [Example 14, isopropyl 3-methyl-3-(4-(5-methyl-2-oxo-2,3-dihydro-1H-benzo[d]imidazol-1-yl)piperidin-1-yl)pyrrolidine-1-carboxylate]	1.5 µM	> 90 µM
Cc1ccc2c(c1)[nH]c(=O)n2C1CCN(C2(C)CCN(C(=O)OC(C)C)C2)CC1 (single isomer, unassigned) [Example 15, isopropyl 3-methyl-3-(4-(5-methyl-2-oxo-2,3-dihydro-1H-benzo[d]imidazol-1-yl)piperidin-1-yl)pyrrolidine-1-carboxylate]	2.85 µM	> 90 µM
CC#CCOC(=O)N1CCC(C)(N2CCC(n3c(=O)[nH]c4ccc(C)cc43)CC2)C1 (single isomer, unassigned) [Example 20, but-2-ynyl 3-methyl-3-(4-(6-methyl-2-oxo-2,3-dihydro-1H-benzo[d]imidazol-1-yl)piperidin-1-yl)pyrrolidine-1-carboxylate]	0.061 µM	0.097 µM
CC#CCOC(=O)N1CCC(C)(N2CCC(n3c(=O)[nH]c4cc(C)ccc43)CC2)C1 (single isomer, unassigned) [Example 21, but-2-ynyl 3-methyl-3-(4-(5-methyl-2-oxo-2,3-dihydro-1H-benzo[d]imidazol-1-yl)piperidin-1-yl)pyrrolidine-1-carboxylate]	0.094 µM	0.262 µM
CC#CCOC(=O)N1CCC(C)(N2CCC(n3c(=O)[nH]c4cc(F)ccc43)CC2)C1 (single isomer, unassigned) [Example 22, but-2-ynyl 3-(4-(5-fluoro-2-oxo-2,3-dihydro-1H-benzo[d]imidazol-1-yl)piperidin-1-yl)-3-methylpyrrolidine-1-carboxylate]	0.126 µM	0.421 µM
COC(=O)N1CCC(C)(N2CCC(n3c(=O)[nH]c4cc(F)ccc43)CC2)C1 (single isomer, unassigned) [Example 23, methyl 3-(4-(5-fluoro-2-oxo-2,3-dihydro-1H-benzo[d]imidazol-1-yl)piperidin-1-yl)-3-methylpyrrolidine-1-carboxylate]	0.668 µM	3.87 µM

Further lines, results first:

EC50 [1]	EC50 [2]	Compound
1.35 µM	5.09 µM	CC1(N2CCC(n3c(=O)[nH]c4cc(F)ccc43)CC2)CCN(C(=O)OCCF)C1 (single isomer, unassigned) [Example 24, 2-fluoroethyl 3-(4-(5-fluoro-2-oxo-2,3-dihydro-1H-benzo[d]imidazol-1-yl)piperidin-1-yl)-3-methylpyrrolidine-1-carboxylate]
0.146 µM	0.684 µM	C#CCOC(=O)N1CCC(C)(N2CCC(n3c(=O)[nH]c4cc(F)ccc43)CC2)C1 (single isomer, unassigned) [Example 25, prop-2-ynyl 3-(4-(5-fluoro-2-oxo-2,3-dihydro-1H-benzo[d]imidazol-1-yl)piperidin-1-yl)-3-methylpyrrolidine-1-carboxylate]
0.146 µM	0.857 µM	Cc1ccc2[nH]c(=O)n(C3CCN(C4(C)CCN(C(=O)OCCF)C4)CC3)c2c1 (single isomer, unassigned) [Example 26, 2-fluoroethyl 3-methyl-3-(4-(6-methyl-2-oxo-2,3-dihydro-1H-benzo[d]imidazol-1-yl)piperidin-1-yl)pyrrolidine-1-carboxylate]
0.62 µM	3.09 µM	Cc1ccc2c(c1)[nH]c(=O)n2C1CCN(C2(C)CCN(C(=O)OCCF)C2)CC1 (single isomer, unassigned) [Example 27, 2-fluoroethyl 3-methyl-3-(4-(5-methyl-2-oxo-2,3-dihydro-1H-benzo[d]imidazol-1-yl)piperidin-1-yl)pyrrolidine-1-carboxylate]
2.4 µM	8.39 µM	Cc1ccc2[nH]c(=O)n(C3CCN(C4(C)CCN(C(=O)OCCF)C4)CC3)c2c1 (single isomer, unassigned) [Example 28, 2-fluoroethyl 3-methyl-3-(4-(6-methyl-2-oxo-2,3-dihydro-1H-benzo[d]imidazol-1-yl)piperidin-1-yl)pyrrolidine-1-carboxylate]
